Measured values from US10986838B2, “Herbicides” (SYNGENTA PARTICIPATIONS AG, priority 2016, dated 2021).

Each compound was assayed on Setaria faberi (SETFA) (assay: Post-emergence herbicidal activity (B2)). Details: Test B2b, 1000 g/ha, evaluated after 13 days, 5=total damage to plant, 0=no damage to plant.
Assay type: in vivo
Procedure: (§1) B2 Post-Emergence Herbicidal Activity Seeds of a variety of test species were sown in standard soil in pots: Triticum aestivium (TRZAW), Avena fatua (AVEFA), Alopecurus myosuroides (ALOMY), Echinochloa crus-galli (ECHCG), Lolium perenne (LOLPE), Zea Mays (ZEAMX), Abutilon theophrasti (ABUTH), Amaranthus retroflexus (AMARE) and Setaria faberi (SETFA). After 8 days cultivation (post-emergence) under controlled conditions in a glasshouse (at 24/16° C., day/night; 14 hours light; 65% humidity), the plants were sprayed with an aqueous spray solution derived from the formulation of the technical active ingredient in acetone/water (50:50) solution containing 0.5% Tween 20 (polyoxyethelyene sorbitan monolaurate, CAS RN 9005-64-5). The test plants were then grown in a glasshouse under controlled conditions (at 24/16° C., day/night; 14 hours light; 65% humidity) and watered twice daily. After 13 days, the test was evaluated (5=total damage to plant; 0=no damage to plant). Tables B2a and B2b Control of Weed Species by Compound of Formula (I) after Post-Emergence Application

SMILES	SETFA damage score
CC(Nc1ccc(-c2cncc(F)c2)nc1C(F)(F)F)c1cccc(C(F)(F)F)c1 (stereo not drawn) [Compound A16]	5
Cc1nc(-c2cccnc2)ccc1N [Compound A36]	2
N#Cc1nc(-c2cncc(F)c2)ccc1N [Compound A9, 3-amino-6-(5-fluoro-3-pyridyl)pyridine-2-carbonitrile]	4
Cc1nc(-c2cncc(F)c2)ccc1N [Compound A8]	5
Fc1cncc(-c2ccc(NCc3ccc(Cl)cc3)c(C(F)(F)F)n2)c1 [Compound A24]	5
COC(=O)CNc1ccc(-c2cncc(F)c2)nc1C(F)(F)F [Compound A22]	5

These compounds were tested on Zea Mays (ZEAMX) (assay: Post-emergence herbicidal activity (B2)). Details: Test B2b, 1000 g/ha, evaluated after 13 days, 5=total damage to plant, 0=no damage to plant.
Assay type: in vivo
Procedure: as §1

SMILES	ZEAMX damage score
CC(Nc1ccc(-c2cncc(F)c2)nc1C(F)(F)F)c1cccc(C(F)(F)F)c1 (stereo not drawn) [Compound A16]	3
Cc1nc(-c2cccnc2)ccc1N [Compound A36]	2
N#Cc1nc(-c2cncc(F)c2)ccc1N [Compound A9, 3-amino-6-(5-fluoro-3-pyridyl)pyridine-2-carbonitrile]	4
Cc1nc(-c2cncc(F)c2)ccc1N [Compound A8]	5
Fc1cncc(-c2ccc(NCc3ccc(Cl)cc3)c(C(F)(F)F)n2)c1 [Compound A24]	5
COC(=O)CNc1ccc(-c2cncc(F)c2)nc1C(F)(F)F [Compound A22]	5

Each compound was assayed on Lolium perenne (LOLPE) (assay: Post-emergence herbicidal activity (B2)). Details: Test B2b, 1000 g/ha, evaluated after 13 days, 5=total damage to plant, 0=no damage to plant.
Assay type: in vivo
Procedure: as §1

SMILES	LOLPE damage score
CC(Nc1ccc(-c2cncc(F)c2)nc1C(F)(F)F)c1cccc(C(F)(F)F)c1 (stereo not drawn) [Compound A16]	1
Cc1nc(-c2cccnc2)ccc1N [Compound A36]	1
N#Cc1nc(-c2cncc(F)c2)ccc1N [Compound A9, 3-amino-6-(5-fluoro-3-pyridyl)pyridine-2-carbonitrile]	1
Cc1nc(-c2cncc(F)c2)ccc1N [Compound A8]	3
Fc1cncc(-c2ccc(NCc3ccc(Cl)cc3)c(C(F)(F)F)n2)c1 [Compound A24]	2
COC(=O)CNc1ccc(-c2cncc(F)c2)nc1C(F)(F)F [Compound A22]	4

Each compound was assayed on Echinochloa crus-galli (ECHCG) (assay: Post-emergence herbicidal activity (B2)). Details: Test B2b, 1000 g/ha, evaluated after 13 days, 5=total damage to plant, 0=no damage to plant.
Assay type: in vivo
Procedure: as §1

SMILES	ECHCG damage score
CC(Nc1ccc(-c2cncc(F)c2)nc1C(F)(F)F)c1cccc(C(F)(F)F)c1 (stereo not drawn) [Compound A16]	3
Cc1nc(-c2cccnc2)ccc1N [Compound A36]	1
N#Cc1nc(-c2cncc(F)c2)ccc1N [Compound A9, 3-amino-6-(5-fluoro-3-pyridyl)pyridine-2-carbonitrile]	4
Cc1nc(-c2cncc(F)c2)ccc1N [Compound A8]	4
Fc1cncc(-c2ccc(NCc3ccc(Cl)cc3)c(C(F)(F)F)n2)c1 [Compound A24]	3
COC(=O)CNc1ccc(-c2cncc(F)c2)nc1C(F)(F)F [Compound A22]	5

The compounds below were run on Abutilon theophrasti (ABUTH) (assay: Post-emergence herbicidal activity (B2)). Details: Test B2b, 1000 g/ha, evaluated after 13 days, 5=total damage to plant, 0=no damage to plant.
Assay type: in vivo
Procedure: as §1

SMILES	ABUTH damage score
CC(Nc1ccc(-c2cncc(F)c2)nc1C(F)(F)F)c1cccc(C(F)(F)F)c1 (stereo not drawn) [Compound A16]	0
Cc1nc(-c2cccnc2)ccc1N [Compound A36]	0
N#Cc1nc(-c2cncc(F)c2)ccc1N [Compound A9, 3-amino-6-(5-fluoro-3-pyridyl)pyridine-2-carbonitrile]	1
Cc1nc(-c2cncc(F)c2)ccc1N [Compound A8]	0
Fc1cncc(-c2ccc(NCc3ccc(Cl)cc3)c(C(F)(F)F)n2)c1 [Compound A24]	0
COC(=O)CNc1ccc(-c2cncc(F)c2)nc1C(F)(F)F [Compound A22]	2

Each compound was assayed on Amaranthus retroflexus (AMARE) (assay: Post-emergence herbicidal activity (B2)). Details: Test B2b, 1000 g/ha, evaluated after 13 days, 5=total damage to plant, 0=no damage to plant.
Assay type: in vivo
Procedure: as §1

SMILES	AMARE damage score
CC(Nc1ccc(-c2cncc(F)c2)nc1C(F)(F)F)c1cccc(C(F)(F)F)c1 (stereo not drawn) [Compound A16]	0
Cc1nc(-c2cccnc2)ccc1N [Compound A36]	1
N#Cc1nc(-c2cncc(F)c2)ccc1N [Compound A9, 3-amino-6-(5-fluoro-3-pyridyl)pyridine-2-carbonitrile]	1
Cc1nc(-c2cncc(F)c2)ccc1N [Compound A8]	0
Fc1cncc(-c2ccc(NCc3ccc(Cl)cc3)c(C(F)(F)F)n2)c1 [Compound A24]	0
COC(=O)CNc1ccc(-c2cncc(F)c2)nc1C(F)(F)F [Compound A22]	3

What follows are compounds tested on Setaria faberi (SETFA) (assay: Pre-emergence herbicidal activity (B1)). Details: Test 1b, 1000 g/ha, evaluated after 13 days, 5=total damage to plant, 0=no damage to plant.
Assay type: in vivo
Procedure: as §1, with “B1 Pre-Emergence” for “B2 Post-Emergence”, “After” for “After 8 days”, “for one day (pre-emergence)” for “(post-emergence)”, “B1a” for “B2a”, “B1b” for “B2b”, “Pre-Emergence” for “Post-Emergence”

SMILES	SETFA damage score
CC(Nc1ccc(-c2cncc(F)c2)nc1C(F)(F)F)c1cccc(C(F)(F)F)c1 (stereo not drawn) [Compound A16]	4
Cc1nc(-c2cccnc2)ccc1N [Compound A36]	1
N#Cc1nc(-c2cncc(F)c2)ccc1N [Compound A9, 3-amino-6-(5-fluoro-3-pyridyl)pyridine-2-carbonitrile]	4
Cc1nc(-c2cncc(F)c2)ccc1N [Compound A8]	5
Fc1cncc(-c2ccc(NCc3ccc(Cl)cc3)c(C(F)(F)F)n2)c1 [Compound A24]	4
COC(=O)CNc1ccc(-c2cncc(F)c2)nc1C(F)(F)F [Compound A22]	4

Each compound was assayed on Zea Mays (ZEAMX) (assay: Pre-emergence herbicidal activity (B1)). Details: Test 1b, 1000 g/ha, evaluated after 13 days, 5=total damage to plant, 0=no damage to plant.
Assay type: in vivo
Procedure: as §1, with “B1 Pre-Emergence” for “B2 Post-Emergence”, “After” for “After 8 days”, “for one day (pre-emergence)” for “(post-emergence)”, “B1a” for “B2a”, “B1b” for “B2b”, “Pre-Emergence” for “Post-Emergence”

SMILES	ZEAMX damage score
CC(Nc1ccc(-c2cncc(F)c2)nc1C(F)(F)F)c1cccc(C(F)(F)F)c1 (stereo not drawn) [Compound A16]	1
Cc1nc(-c2cccnc2)ccc1N [Compound A36]	0
N#Cc1nc(-c2cncc(F)c2)ccc1N [Compound A9, 3-amino-6-(5-fluoro-3-pyridyl)pyridine-2-carbonitrile]	2
Cc1nc(-c2cncc(F)c2)ccc1N [Compound A8]	3
Fc1cncc(-c2ccc(NCc3ccc(Cl)cc3)c(C(F)(F)F)n2)c1 [Compound A24]	3
COC(=O)CNc1ccc(-c2cncc(F)c2)nc1C(F)(F)F [Compound A22]	5

What follows are compounds tested on Lolium perenne (LOLPE) (assay: Pre-emergence herbicidal activity (B1)). Details: Test 1b, 1000 g/ha, evaluated after 13 days, 5=total damage to plant, 0=no damage to plant.
Assay type: in vivo
Procedure: as §1, with “B1 Pre-Emergence” for “B2 Post-Emergence”, “After” for “After 8 days”, “for one day (pre-emergence)” for “(post-emergence)”, “B1a” for “B2a”, “B1b” for “B2b”, “Pre-Emergence” for “Post-Emergence”

SMILES	LOLPE damage score
CC(Nc1ccc(-c2cncc(F)c2)nc1C(F)(F)F)c1cccc(C(F)(F)F)c1 (stereo not drawn) [Compound A16]	0
Cc1nc(-c2cccnc2)ccc1N [Compound A36]	0
N#Cc1nc(-c2cncc(F)c2)ccc1N [Compound A9, 3-amino-6-(5-fluoro-3-pyridyl)pyridine-2-carbonitrile]	0
Cc1nc(-c2cncc(F)c2)ccc1N [Compound A8]	1
Fc1cncc(-c2ccc(NCc3ccc(Cl)cc3)c(C(F)(F)F)n2)c1 [Compound A24]	1
COC(=O)CNc1ccc(-c2cncc(F)c2)nc1C(F)(F)F [Compound A22]	2

These compounds were tested on Echinochloa crus-galli (ECHCG) (assay: Pre-emergence herbicidal activity (B1)). Details: Test 1b, 1000 g/ha, evaluated after 13 days, 5=total damage to plant, 0=no damage to plant.
Assay type: in vivo
Procedure: as §1, with “B1 Pre-Emergence” for “B2 Post-Emergence”, “After” for “After 8 days”, “for one day (pre-emergence)” for “(post-emergence)”, “B1a” for “B2a”, “B1b” for “B2b”, “Pre-Emergence” for “Post-Emergence”

SMILES	ECHCG damage score
CC(Nc1ccc(-c2cncc(F)c2)nc1C(F)(F)F)c1cccc(C(F)(F)F)c1 (stereo not drawn) [Compound A16]	1
Cc1nc(-c2cccnc2)ccc1N [Compound A36]	0
N#Cc1nc(-c2cncc(F)c2)ccc1N [Compound A9, 3-amino-6-(5-fluoro-3-pyridyl)pyridine-2-carbonitrile]	4
Cc1nc(-c2cncc(F)c2)ccc1N [Compound A8]	2
Fc1cncc(-c2ccc(NCc3ccc(Cl)cc3)c(C(F)(F)F)n2)c1 [Compound A24]	2
COC(=O)CNc1ccc(-c2cncc(F)c2)nc1C(F)(F)F [Compound A22]	4

The compounds below were run on Abutilon theophrasti (ABUTH) (assay: Pre-emergence herbicidal activity (B1)). Details: Test 1b, 1000 g/ha, evaluated after 13 days, 5=total damage to plant, 0=no damage to plant.
Assay type: in vivo
Procedure: as §1, with “B1 Pre-Emergence” for “B2 Post-Emergence”, “After” for “After 8 days”, “for one day (pre-emergence)” for “(post-emergence)”, “B1a” for “B2a”, “B1b” for “B2b”, “Pre-Emergence” for “Post-Emergence”

SMILES	ABUTH damage score
CC(Nc1ccc(-c2cncc(F)c2)nc1C(F)(F)F)c1cccc(C(F)(F)F)c1 (stereo not drawn) [Compound A16]	0
Cc1nc(-c2cccnc2)ccc1N [Compound A36]	1
N#Cc1nc(-c2cncc(F)c2)ccc1N [Compound A9, 3-amino-6-(5-fluoro-3-pyridyl)pyridine-2-carbonitrile]	1
Cc1nc(-c2cncc(F)c2)ccc1N [Compound A8]	0
Fc1cncc(-c2ccc(NCc3ccc(Cl)cc3)c(C(F)(F)F)n2)c1 [Compound A24]	0
COC(=O)CNc1ccc(-c2cncc(F)c2)nc1C(F)(F)F [Compound A22]	0

Each compound was assayed on Amaranthus retroflexus (AMARE) (assay: Pre-emergence herbicidal activity (B1)). Details: Test 1b, 1000 g/ha, evaluated after 13 days, 5=total damage to plant, 0=no damage to plant.
Assay type: in vivo
Procedure: as §1, with “B1 Pre-Emergence” for “B2 Post-Emergence”, “After” for “After 8 days”, “for one day (pre-emergence)” for “(post-emergence)”, “B1a” for “B2a”, “B1b” for “B2b”, “Pre-Emergence” for “Post-Emergence”

SMILES	AMARE damage score
CC(Nc1ccc(-c2cncc(F)c2)nc1C(F)(F)F)c1cccc(C(F)(F)F)c1 (stereo not drawn) [Compound A16]	0
Cc1nc(-c2cccnc2)ccc1N [Compound A36]	1
N#Cc1nc(-c2cncc(F)c2)ccc1N [Compound A9, 3-amino-6-(5-fluoro-3-pyridyl)pyridine-2-carbonitrile]	1
Cc1nc(-c2cncc(F)c2)ccc1N [Compound A8]	0
Fc1cncc(-c2ccc(NCc3ccc(Cl)cc3)c(C(F)(F)F)n2)c1 [Compound A24]	0
COC(=O)CNc1ccc(-c2cncc(F)c2)nc1C(F)(F)F [Compound A22]	3
